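1) Cells in 96-well plates. 2) Compound, 48 h, 5 concentrations. 3) Linear interpolation between surrounding doses. 4) Unreached endpoint = highest concentration. Definition used: TGI = concentration required for complete inhibition of growth.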
Assays:
Experiment in all cases: DTP human tumour cell line panel, 48 h
MDA-N = tested on: MDA-N
HCT-15 colon = tested on: HCT-15 colon
CAKI-1 renal = tested on: CAKI-1 renal
SK-MEL-28 melanoma = tested on: SK-MEL-28 melanoma
MDA-MB-435 = tested on: MDA-MB-435
SF-295 CNS = tested on: SF-295 CNS
OVCAR-8 ovarian = tested on: OVCAR-8 ovarian
SK-MEL-2 melanoma = tested on: SK-MEL-2 melanoma
MDA-MB-231 breast = tested on: MDA-MB-231 breast
HT29 colon = tested on: HT29 colon
PC-3 prostate = tested on: PC-3 prostate
SN12C renal = tested on: SN12C renal
RXF 393 renal = tested on: RXF 393 renal
ACHN renal = tested on: ACHN renal
HCT-116 colon = tested on: HCT-116 colon
SK-OV-3 ovarian = tested on: SK-OV-3 ovarian
A549 NSCLC = tested on: A549 NSCLC
SNB-19 CNS = tested on: SNB-19 CNS
SF-539 CNS = tested on: SF-539 CNS
UO-31 renal = tested on: UO-31 renal

| Compound | TGI (MDA-N) | TGI (HCT-15 colon) | TGI (CAKI-1 renal) | TGI (SK-MEL-28 melanoma) | TGI (MDA-MB-435) | TGI (SF-295 CNS) | TGI (OVCAR-8 ovarian) | TGI (SK-MEL-2 melanoma) | TGI (MDA-MB-231 breast) | TGI (HT29 colon) | TGI (PC-3 prostate) | TGI (SN12C renal) | TGI (RXF 393 renal) | TGI (ACHN renal) | TGI (HCT-116 colon) | TGI (SK-OV-3 ovarian) | TGI (A549 NSCLC) | TGI (SNB-19 CNS) | TGI (SF-539 CNS) | TGI (UO-31 renal) |
| --- | --- | --- | --- | --- | --- | --- | --- | --- | --- | --- | --- | --- | --- | --- | --- | --- | --- | --- | --- | --- |
| CC(=O)N1C(CCc2ccccc2)CC(C)(C=O)C1Cc1ccc(O[Si](C(C)C)(C(C)C)C(C)C)cc1 (stereo not given) | 6.4 µM | 10.7 µM | 11.2 µM | 18.7 µM | 8.39 µM | 19.6 µM | 18.6 µM | 8.02 µM | 11.1 µM | 9.99 µM | 12.8 µM | 9.06 µM | 5.81 µM | 18.8 µM | 9.03 µM | 29.3 µM | 15.2 µM | 18.1 µM | 6.03 µM | 14.3 µM |
| CC[C@@H]([C@H](O)c1ccccc1Cl)[N+](=O)[O-] | > 100 µM | > 100 µM | > 100 µM | > 100 µM | > 100 µM | > 100 µM | > 100 µM | > 100 µM | > 100 µM | > 100 µM | > 100 µM | > 100 µM | > 100 µM | > 100 µM | > 100 µM | > 100 µM | > 100 µM | > 100 µM | > 100 µM | > 100 µM |
| O=C1N/C(=N\N=C\c2ccccc2)C2(CCCCC2)O1 | > 100 µM | > 100 µM | > 100 µM | > 100 µM | > 100 µM | > 100 µM | > 100 µM | > 100 µM | > 100 µM | > 100 µM | > 100 µM | > 100 µM | > 100 µM | > 100 µM | > 100 µM | > 100 µM | > 100 µM | > 100 µM | > 100 µM | > 100 µM |
| CN1C(=O)[C@H](c2c[nH]c3ccccc23)[C@H](c2c[nH]c3ccccc23)C1=O | > 100 µM | > 59.9 µM | > 38.8 µM | > 87.6 µM | > 77.6 µM | > 73.7 µM | > 100 µM | > 55.2 µM | > 31.8 µM | > 83.4 µM | > 80.4 µM | > 100 µM | > 90.6 µM | > 66.3 µM | > 59.1 µM | > 100 µM | > 100 µM | > 100 µM | > 54.3 µM | 62.4 µM |
| Cc1nc2c(O)c3c(c(O)c2nc1C)C1C=CC3CC1 | 7.37 µM | 34.8 µM | 14.9 µM | 30.8 µM | 6.2 µM | 47.2 µM | 20.9 µM | 33 µM | 10.1 µM | 55.9 µM | 35.9 µM | 27.4 µM | 22.6 µM | 28.5 µM | 17.3 µM | 55.2 µM | 63.5 µM | > 100 µM | 22 µM | 24.8 µM |

Source: PubChem BioAssay (NCI)
